According to patent publication US20250145665A1, “MACROCYCLIC PEPTIDES USEFUL AS MODULATORS OF TNF ALPHA” (Bristol-Myers Squibb Company, priority 2023, published 2025):
pIC50: −log10 of the molar value. Read-outs that look alike come from different tables or passages of the source. Starred links: 1 amine or outer side, 2 acyl side, 3 side chain; linkers in the order of their positions; H or OH if unused. Positions of bridges follow the written chain, without caps; N, C: chain ends. Non-standard residues stand in square brackets, D forms with d. Residues, ends and D or L forms follow the SMILES beside them. ξ: configuration not given here. *: point of attachment. Bip(4'-(3-HOOC-benzamido)) = N[C@@H](Cc1ccc(-c2ccc(NC(=O)c3cccc(C(=O)O)c3)cc2)cc1)C(=O)O; Bip(4'-NHBz) = N[C@@H](Cc1ccc(-c2ccc(NC(=O)c3ccccc3)cc2)cc1)C(=O)O; Bip(4'-NH) = O=C([C@H](Cc1ccc(-c2ccc(N[*:3])cc2)cc1)N[*:1])[*:2]; Indazole3carbonyl(1-CH2COOH) = O=C(O)Cn1nc(C(=O)*)c2ccccc21; Bip(4'-COOH) = N[C@@H](Cc1ccc(-c2ccc(C(=O)O)cc2)cc1)C(=O)O; Bip(4'-NHAc) = CC(=O)Nc1ccc(-c2ccc(C[C@H](N)C(=O)O)cc2)cc1; X76 = O=C(O)CCC(=O)N[C@@H](Cc1cn(CC(=O)O)c2ccccc12)C(=O)*; X58 = N=C(NCCC[C@@H](N[*:1])C(=O)[*:2])NCCc1cccc(N)c1; Ala(imidazol-2-yl) = N[C@@H](Cc1ncc[nH]1)C(=O)O; Ala(morpholin-4-yl) = N[C@@H](CN1CCOCC1)C(=O)O; Benzoyl(3-OCH2COOH) = O=C(O)COc1cccc(C(=O)*)c1; Phe(3-CONH2) = NC(=O)c1cccc(C[C@H](N)C(=O)O)c1; Phe(4-CH2NH2) = NCc1ccc(C[C@H](N)C(=O)O)cc1; Bip = N[C@@H](Cc1ccc(-c2ccccc2)cc1)C(=O)O; Pro(cis-4-F) = O=C(O)[C@@H]1C[C@H](F)CN1; Tiq1c(1S) = O=C(O)[C@H]1NCCc2ccccc21; Val(3-OH) = CC(C)(O)[C@H](N)C(=O)O; Cya = N[C@@H](CS(=O)(=O)O)C(=O)O; 2Pal = N[C@@H](Cc1ccccn1)C(=O)O; Tic = O=C(O)[C@@H]1Cc2ccccc2CN1; 2Thi = N[C@@H](Cc1cccs1)C(=O)O; Cha = N[C@@H](CC1CCCCC1)C(=O)O; Tle = CC(C)(C)[C@H](N)C(=O)O; ξIle = CC[C@H](C)C(N)C(=O)O; Hpra = C#CCC[C@H](N)C(=O)O; ξP = O=C(O)C1CCCN1; Sar = CNCC(=O)O

Target: TNFα (Homo sapiens, UniProt P01375)
Assay: TNF-Induced HEK-Blue Assay
Assay type: cell-based
[1] = HEK-Blue-CD40L cells, NF-kB-driven secreted alkaline phosphatase reporter, TNFα 0.5 ng/ml, 18 h, read-out: TNF induced HEK-Blue assay IC50 value

Chain of TNFα (P01375 77-233 limits assumed): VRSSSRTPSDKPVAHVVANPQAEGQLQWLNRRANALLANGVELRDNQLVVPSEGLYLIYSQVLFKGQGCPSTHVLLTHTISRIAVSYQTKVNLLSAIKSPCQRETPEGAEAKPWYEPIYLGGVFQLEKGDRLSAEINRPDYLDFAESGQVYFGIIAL

Compound | pIC50 [1] | pIC50
CC[C@H](C)[C@@H]1NC(=O)[C@@H]2CCCN2C(=O)[C@H]([C@@H](C)CC)NC(=O)[C@@H](CCCNC(=N)N)NC(=O)[C@H](CC(=O)O)NC(=O)[C@H](Cc2ccccn2)NC(=O)CN(C)C(=O)[C@H](Cc2ccc(-c3ccc(NC(=O)c4ccccc4)cc3)cc2)NC(=O)[C@H](Cc2ccc(-c3ccccc3)cc2)NC(=O)[C@H](C(C)(C)C)NC(=O)CSC[C@@H](C(=O)NCC(N)=O)NC(=O)[C@H](CC(C)C)NC(=O)[C@H](Cc2cccc(C(N)=O)c2)NC1=O [Example 367] ({CH2CO}-[Tle][Bip][Bip(4'-NHBz)][Sar][2Pal]D[dR]IPI[Phe(3-CONH2)]LCG-NH2; thioether N-13) | – | > 7.30
CC(C)C[C@@H]1NC(=O)[C@H](CCCNC(=N)N)NC(=O)[C@H](C(C)C)NC(=O)[C@@H]2CCCN2C(=O)[C@H](Cc2ccc(CN)cc2)NC(=O)[C@H](CCCNC(=N)N)NC(=O)[C@H](CC(=O)O)NC(=O)[C@@H]2CCCN2C(=O)CN(C)C(=O)[C@H](Cc2ccc(-c3ccccc3)cc2)NC(=O)[C@H](Cc2ccc(-c3ccccc3)cc2)NC(=O)[C@H](CN2CCOCC2)NC(=O)CSC[C@@H](C(=O)NCC(N)=O)NC1=O [Example 51] ({CH2CO}-[Ala(morpholin-4-yl)][Bip][Bip][Sar]PDR[Phe(4-CH2NH2)]PVRLCG-NH2; thioether N-13) | 5.70 to 6.70 | –
C#CCC[C@@H]1NC(=O)[C@H](CCCNC(=N)N)NC(=O)[C@H](CC(=O)O)NC(=O)[C@@H]2CCCN2C(=O)CN(C)C(=O)[C@H](Cc2ccc(-c3ccccc3)cc2)NC(=O)[C@H](Cc2ccc(-c3ccccc3)cc2)NC(=O)[C@H](Cc2ccccc2)NC(=O)CSC[C@@H](C(=O)NCC(N)=O)NC(=O)[C@H](CC(C)C)NC(=O)[C@H](CCCNC(=N)N)NC(=O)[C@H](C(C)C)NC(=O)[C@@H]2CCCN2C1=O [Example 33] ({CH2CO}-F[Bip][Bip][Sar]PDR[Hpra]PVRLCG-NH2; thioether N-13) | 5.70 to 6.70 | –
CC[C@H](C)C1NC(=O)[C@@H]2CCCN2C(=O)[C@H]([C@@H](C)CC)NC(=O)[C@@H](CCCNC(=N)N)NC(=O)[C@H](CC(=O)O)NC(=O)[C@H](Cc2ccccn2)NC(=O)CN(C)C(=O)[C@H](Cc2ccc(-c3ccc(NC(C)=O)cc3)cc2)NC(=O)[C@H](Cc2ccc(-c3ccc(C(=O)O)cc3)cc2)NC(=O)[C@H](CC2CCCCC2)NC(=O)CSC[C@@H](C(=O)NCC(N)=O)NC(=O)[C@H](CC(C)C)NC(=O)[C@H](CCCNC(=N)N)NC1=O (stereo partly drawn) [Example 291] ({CH2CO}-[Cha][Bip(4'-COOH)][Bip(4'-NHAc)][Sar][2Pal]D[dR]IP[ξIle]RLCG-NH2; thioether N-13) | > 7.30 | –
CC(C)C[C@@H]1NC(=O)[C@H](CCCNC(=N)N)NC(=O)[C@H](C(C)C)NC(=O)[C@@H]2C[C@H](F)CN2C(=O)[C@H](C(C)C)NC(=O)[C@H](CCCNC(=N)N)NC(=O)[C@H](CC(=O)O)NC(=O)[C@@H]2CCCN2C(=O)CN(C)C(=O)[C@H](Cc2ccc(-c3ccccc3)cc2)NC(=O)[C@H](Cc2ccc(-c3ccccc3)cc2)NC(=O)[C@H](Cc2ccccc2)NC(=O)CSC[C@@H](C(=O)NCC(N)=O)NC1=O [Example 43] ({CH2CO}-F[Bip][Bip][Sar]PDRV[Pro(cis-4-F)]VRLCG-NH2; thioether N-13) | 5.70 to 6.70 | –
CC[C@H](C)[C@@H]1NC(=O)[C@@H](CCCNC(=N)N)NC(=O)[C@H](CC(=O)O)NC(=O)[C@H](Cc2cnc[nH]2)NC(=O)CN(C)C(=O)[C@H](Cc2ccc(-c3ccc(NC(=O)c4cccc(C(=O)O)c4)cc3)cc2)NC(=O)[C@H](Cc2ccc(-c3ccc(C(=O)O)cc3)cc2)NC(=O)[C@H](CC2CCCCC2)NC(=O)CSC[C@@H](C(=O)NCC(N)=O)NC(=O)[C@H](CC(C)C)NC(=O)[C@H](Cc2cnc[nH]2)NC(=O)[C@H](C(C)C)NC(=O)[C@@H]2c3ccccc3CCN2C1=O [Example 374] ({CH2CO}-[Cha][Bip(4'-COOH)][Bip(4'-(3-HOOC-benzamido))][Sar]HD[dR]I[Tiq1c(1S)]VHLCG-NH2; thioether N-13) | > 7.30 | –
CC[C@H](C)[C@@H]1NC(=O)[C@@H](CCCNC(=N)N)NC(=O)[C@H](CC(=O)O)NC(=O)[C@H](Cc2cnc[nH]2)NC(=O)CN(C)C(=O)[C@H](Cc2ccc(-c3ccc(NC(=O)c4cccc(OCC(=O)O)c4)cc3)cc2)NC(=O)[C@H](Cc2ccc(-c3ccccc3)cc2)NC(=O)[C@H](CC2CCCCC2)NC(=O)CSC[C@@H](C(=O)NCC(N)=O)NC(=O)[C@H](CC(C)C)NC(=O)[C@H](Cc2c[nH]cn2)NC(=O)[C@H](C(C)C)NC(=O)[C@@H]2Cc3ccccc3CN2C1=O [Example 515] ({CH2CO}-[Cha][Bip][Bip(4'-NH)](Benzoyl(3-OCH2COOH))[Sar]HD[dR]I[Tic]VHLCG-NH2; thioether N-13) | > 7.30 | –
CC(C)C[C@@H]1NC(=O)[C@H](CCCNC(=N)N)NC(=O)[C@H](C(C)C)NC(=O)C2CCCN2C(=O)[C@H](C(C)C)NC(=O)[C@@H](CCCNC(=N)NCCc2cccc(N)c2)NC(=O)[C@H](CC(=O)O)NC(=O)[C@@H]2CCCN2C(=O)CN(C)C(=O)[C@H](Cc2ccc(-c3ccc(NC(=O)c4nn(CC(=O)O)c5ccccc45)cc3)cc2)NC(=O)[C@H](Cc2ccc(-c3ccc(C(=O)O)cc3)cc2)NC(=O)[C@H](CN2CCOCC2)NC(=O)CSC[C@@H](C(=O)NCC(N)=O)NC1=O (stereo partly drawn) [Example 406] ({CH2CO}-[Ala(morpholin-4-yl)][Bip(4'-COOH)][Bip(4'-NH)](Indazole3carbonyl(1-CH2COOH))[Sar]PD[X58]V[ξP]VRLCG-NH2; thioether N-13) | – | 6.70 to 7.30

Second part, led by results:

pIC50 [1] | Compound | pIC50
5.70 to 6.70 | CC[C@H](C)[C@@H]1NC(=O)[C@@H](CCCNC(=N)N)NC(=O)[C@H](CC(=O)O)NC(=O)[C@H](Cc2cnc[nH]2)NC(=O)CN(C)C(=O)[C@H](Cc2ccc(-c3ccc(NC(=O)[C@H](Cc4cn(CC(=O)O)c5ccccc45)NC(=O)CCC(=O)O)cc3)cc2)NC(=O)[C@H](Cc2ccc(-c3ccccc3)cc2)NC(=O)[C@H](CC2CCCCC2)NC(=O)CSC[C@@H](C(=O)NCC(N)=O)NC(=O)[C@H](CC(C)C)NC(=O)[C@H](Cc2ncc[nH]2)NC(=O)[C@H](C(C)C)NC(=O)[C@@H]2CCCN2C1=O [Example 413] ({CH2CO}-[Cha][Bip][Bip(4'-NH)](X76)[Sar]HD[dR]IPV[Ala(imidazol-2-yl)]LCG-NH2; thioether N-13) | –
> 7.30 | CC(=O)Nc1ccc(-c2ccc(C[C@@H]3NC(=O)[C@H](Cc4ccc(-c5ccccc5)cc4)NC(=O)[C@H](CN4CCOCC4)NC(=O)CSC[C@@H](C(=O)NCC(N)=O)NC(=O)[C@H](CC(C)C)NC(=O)[C@H](Cc4ccccn4)NC(=O)[C@H](C(C)C)NC(=O)[C@@H]4CCCN4C(=O)[C@H](C(C)C)NC(=O)[C@@H](CCCNC(=N)N)NC(=O)[C@H](CC(=O)O)NC(=O)[C@H](Cc4ccc(O)cc4)NC(=O)CN(C)C3=O)cc2)cc1 [Example 222] ({CH2CO}-[Ala(morpholin-4-yl)][Bip][Bip(4'-NHAc)][Sar]YD[dR]VPV[2Pal]LCG-NH2; thioether N-13) | –
6.70 to 7.30 | CC(=O)Nc1ccc(-c2ccc(C[C@@H]3NC(=O)[C@H](Cc4ccc(-c5ccccc5)cc4)NC(=O)[C@H](C(C)(C)O)NC(=O)CSC[C@@H](C(=O)NCC(N)=O)NC(=O)[C@H](CC(C)C)NC(=O)[C@H](Cc4cnc[nH]4)NC(=O)[C@H](C(C)C)NC(=O)[C@@H]4CCCN4C(=O)[C@H](C(C)C)NC(=O)[C@@H](CCCNC(=N)N)NC(=O)[C@H](CC(=O)O)NC(=O)[C@H](Cc4ccccn4)NC(=O)CN(C)C3=O)cc2)cc1 [Example 518] ({CH2CO}-[Val(3-OH)][Bip][Bip(4'-NHAc)][Sar][2Pal]D[dR]VPVHLCG-NH2; thioether N-13) | –
6.70 to 7.30 | CC(=O)Nc1ccc(-c2ccc(C[C@@H]3NC(=O)[C@H](Cc4ccc(-c5ccccc5)cc4)NC(=O)[C@H](CC4CCCCC4)NC(=O)CSC[C@@H](C(=O)NCC(N)=O)NC(=O)[C@H](CC(C)C)NC(=O)[C@H](Cc4ccc(O)cc4)NC(=O)[C@H](C(C)C)NC(=O)[C@@H]4CCCN4C(=O)[C@H](C(C)C)NC(=O)[C@@H](CCCNC(=N)N)NC(=O)[C@H](CS(=O)(=O)O)NC(=O)[C@@H]4CCCN4C(=O)CN(C)C3=O)cc2)cc1 [Example 309] ({CH2CO}-[Cha][Bip][Bip(4'-NHAc)][Sar]P[Cya][dR]VPVYLCG-NH2; thioether N-13) | –
6.70 to 7.30 | CC(C)C[C@@H]1NC(=O)[C@H](Cc2ccc(O)cc2)NC(=O)[C@H](C(C)C)NC(=O)[C@@H]2CCCN2C(=O)[C@H](C(C)C)NC(=O)[C@H](CCCNC(=N)N)NC(=O)[C@H](CC(=O)O)NC(=O)[C@H](Cc2ccc(O)cc2)NC(=O)CN(C)C(=O)[C@H](Cc2ccc(-c3ccccc3)cc2)NC(=O)[C@H](Cc2ccc(-c3ccccc3)cc2)NC(=O)[C@H](C(C)(C)O)NC(=O)CSC[C@@H](C(=O)NCC(N)=O)NC1=O [Example 50] ({CH2CO}-[Val(3-OH)][Bip][Bip][Sar]YDRVPVYLCG-NH2; thioether N-13) | –
> 7.30 | CC(C)C[C@@H]1NC(=O)[C@H](Cc2cccs2)NC(=O)[C@H](C(C)C)NC(=O)[C@@H]2CCCN2C(=O)[C@H](C(C)C)NC(=O)[C@@H](CCCNC(=N)N)NC(=O)[C@H](CC(=O)O)NC(=O)[C@H](Cc2ccccn2)NC(=O)CN(C)C(=O)[C@H](Cc2ccc(-c3ccc(NC(=O)c4cccc(OCC(=O)O)c4)cc3)cc2)NC(=O)[C@H](Cc2ccc(-c3ccc(C(=O)O)cc3)cc2)NC(=O)[C@H](CN2CCOCC2)NC(=O)CSC[C@@H](C(=O)NCC(N)=O)NC1=O [Example 609] ({CH2CO}-[Ala(morpholin-4-yl)][Bip(4'-COOH)][Bip(4'-NH)](Benzoyl(3-OCH2COOH))[Sar][2Pal]D[dR]VPV[2Thi]LCG-NH2; thioether N-13) | –
> 7.30 | CC(=O)Nc1ccc(-c2ccc(C[C@@H]3NC(=O)[C@H](Cc4ccc(-c5ccccc5)cc4)NC(=O)[C@H](CN4CCOCC4)NC(=O)CSC[C@@H](C(=O)NCC(N)=O)NC(=O)[C@H](CC(C)C)NC(=O)[C@H](CCCNC(=N)N)NC(=O)[C@H](C(C)C)NC(=O)[C@@H]4CCCN4C(=O)[C@H](C(C)C)NC(=O)[C@@H](CCCNC(=N)N)NC(=O)[C@H](CC(=O)O)NC(=O)[C@H](Cc4ccc(O)cc4)NC(=O)CN(C)C3=O)cc2)cc1 [Example 195] ({CH2CO}-[Ala(morpholin-4-yl)][Bip][Bip(4'-NHAc)][Sar]YD[dR]VPVRLCG-NH2; thioether N-13) | –
